Like-named read-outs stand apart in the source and are kept apart here. Starred links: 1 amine or outer side, 2 acyl side, 3 side chain; linkers in the order of their positions; H or OH if unused. Non-standard residues stand in square brackets, D forms with d. Groups on a side chain read outwards from the residue. *: point of attachment. Butyryl(4-SO2NHCO(CH2)16Tz) = O=C(CCCCCCCCCCCCCCCCc1nnn[nH]1)NS(=O)(=O)CCCC(=O)*; C20 diacid = O=C(O)CCCCCCCCCCCCCCCCCCC(=O)*; C18 diacid = O=C(O)CCCCCCCCCCCCCCCCC(=O)*; C16 diacid = O=C(O)CCCCCCCCCCCCCCC(=O)*; γGlu = O=C(O)[C@H](CCC(=O)[*:2])N[*:1]; X2 = O=C(CCCCCCCCCCCCCCCCc1nnn[nH]1)*; εLys = N[C@@H](CCCCN[*:1])C(=O)[*:2]; Trx = NC[C@H]1CC[C@H](C(=O)O)CC1; AEEA = NCCOCCOCC(=O)O; Aib = CC(C)(N)C(=O)O; Ahx = NCCCCCC(=O)O
Assays:
[1] = molecular target: T1, human amylin receptor (hAmyR3) (Homo sapiens, UniProt O60896+P30988); test: Human amylin receptor in vitro potency assay (CRE-luciferase reporter, BHK cells); assay type: cell-based; conditions: for EC50: read-out: Human AmyR3 potency [EC50 (pM)];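 as to all read-outs here: BHK cells expressing human calcitonin receptor plus RAMP3 (amylin-3 receptor) with a CRE-luciferase reporter, agonist activity read as luminescence from cAMP-driven transcription, 7-point serial dilutions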
T1 construct: host or cells: BHK cells (Hollex-1 line: human calcitonin receptor (a) + CRE-Luc), further transfected with human RAMP3
Excerpt: Activation of hAmyR3 leads to increased cellular concentrations of cAMP. Consequently, transcription is activated by promotors containing multiple copies of the cAMP response element (CRE). It is thus possible to measure hAmyR3 activity using a CRE-luciferase reporter gene introduced into Baby Hamster Kidney (BHK) cells co-expressing the hAmyR3.
The cell line was further transfected with human receptor modifying protein 3 (RAMP3) using standard methods. This turns the human calcitonin receptor into a human amylin-3(a) receptor.
(§1) Cells were aliquoted and stored at -180° C. until use.
The plate was incubated over night at 37° C. in 5% CO2. On the day of the assay, cells were washed three times in assay buffer. Serial dilutions (7-fold dilutions, 7 concentrations pr. compound and one well containing only assay buffer) of comparator compounds and GLP-1 receptor-amylin receptor co-agonists were performed in assay buffer often starting from approximately 10-100 nM in 96-well plates and 30 µL of each concentration added to the 384-well assay plate with cells. […] The assay plate was sealed, incubated at room temperature with gentle shaking for 5 minutes followed by 30 minutes incubation without shaking while protected from light. Luminescence was detected on a luminescence plate reader e.g. a Synergy 2 (BioTek).

[2] = molecular target: T2, human GLP-1 receptor (Homo sapiens, UniProt P43220); test: Human GLP-1 receptor in vitro potency assay (CRE-luciferase reporter, BHK cells); assay type: cell-based
T2 construct: expressed in transfected cells; host or cells: BHK (Baby Hamster Kidney) cells, clone BHK 467-12A KZ-10, stably transfected, with CRE-luciferase reporter
Description: It is thus possible to measure GLP-1 receptor activity using a CRE-luciferase reporter gene introduced into Baby Hamster Kidney (BHK) cells co-expressing the GLP-1 receptor.
as §1
Plates were sealed and incubated at room temperature with gentle shaking for 30 minutes while protected from light. Luminescence was detected on a luminescence plate reader e.g. a Synergy 2 (BioTek).

[3] = Table 4c, further comparator compounds
[4] = Table 4a, BHK hAmyR3/CRE-Luc cells, 3 hours
[5] = Table 4a, BHK cells expressing human GLP-1R, CRE-Luc, 3 hours, read-out: Human GLP-1R potency [EC50 (pM)]

T2 sequence (P43220 24-463): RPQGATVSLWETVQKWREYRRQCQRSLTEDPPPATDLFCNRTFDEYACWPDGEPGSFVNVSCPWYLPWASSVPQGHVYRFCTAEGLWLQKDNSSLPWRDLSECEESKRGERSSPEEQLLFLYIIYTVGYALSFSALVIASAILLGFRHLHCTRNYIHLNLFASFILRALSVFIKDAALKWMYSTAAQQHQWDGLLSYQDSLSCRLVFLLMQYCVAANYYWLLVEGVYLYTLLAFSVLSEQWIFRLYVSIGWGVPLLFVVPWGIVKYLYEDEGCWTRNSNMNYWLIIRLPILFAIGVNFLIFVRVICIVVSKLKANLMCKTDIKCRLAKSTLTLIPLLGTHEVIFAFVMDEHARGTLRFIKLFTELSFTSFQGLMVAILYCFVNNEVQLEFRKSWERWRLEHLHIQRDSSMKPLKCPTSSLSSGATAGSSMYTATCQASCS
T1 sequence (P30988 25-474): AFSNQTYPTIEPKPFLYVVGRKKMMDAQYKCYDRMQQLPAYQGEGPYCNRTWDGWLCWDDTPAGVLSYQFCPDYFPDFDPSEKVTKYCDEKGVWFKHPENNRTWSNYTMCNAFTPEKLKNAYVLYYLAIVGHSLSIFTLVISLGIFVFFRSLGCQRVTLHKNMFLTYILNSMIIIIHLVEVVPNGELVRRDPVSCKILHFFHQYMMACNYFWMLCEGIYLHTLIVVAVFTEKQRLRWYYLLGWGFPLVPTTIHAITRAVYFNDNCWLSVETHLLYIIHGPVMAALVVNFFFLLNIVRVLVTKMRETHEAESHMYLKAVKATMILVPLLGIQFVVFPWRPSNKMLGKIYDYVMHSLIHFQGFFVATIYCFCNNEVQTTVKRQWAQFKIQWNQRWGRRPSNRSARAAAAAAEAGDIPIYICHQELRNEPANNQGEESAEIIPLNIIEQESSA
T1 sequence (O60896 24-148): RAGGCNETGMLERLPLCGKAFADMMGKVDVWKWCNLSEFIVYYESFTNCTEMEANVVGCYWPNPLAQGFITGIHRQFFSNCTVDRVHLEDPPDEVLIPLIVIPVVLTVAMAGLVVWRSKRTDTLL

| Compound | EC50 [1, 4] [pM] | EC50 [2, 5] [pM] | also measured |
| --- | --- | --- | --- |
| H-Aib-EGTFTSDVSSYLEGQAA-K([2-[2-[2-[[2-[2-[2-[[(4S)-4-Carboxy-4-(17-Carboxyheptadecanoylamino)Butanoyl]Amino]Ethoxy]Ethoxy]Acetyl]Amino]Ethoxy]Ethoxy]Acetyl])-EFIAWLVRGRGGQEPGQEPCNTATCATQRLAEFLRHSSNNFGPILPPTNVGSNTP-amide [Comparator compound 0015, reference compound] |  |  | EC50 [1, 3]: 312 pM; Ability to agonise the amylin receptor, in words ([1]; Tables 4a-4c): poor agonist of the amylin receptor; EC50 ([2]; read-out: Human GLP-1 R potency [EC50 (pM)], Table 4c, further comparator compounds): 45 pM |
| H-H[Aib]EGTFTSDVSSYLEEQAAREFIAWLVRGRK([AEEA-AEEA-AEEA-γGlu-C18 diacid])GGGGEASELSTAALGRLSAELHELATLPRTETGSGSP-NH2 [Compound 0661] | 14.4 | 2.8 |  |
| H-H[Aib]EGTFTSDVSSYLEGQAAK([AEEA-AEEA-γGlu-C18 diacid])EFIAWLVRGRGQEPGQAPEASELSTAALGRLSAELHELATLPRTETGSGSP-NH2 [Compound 0026] | 14 | 8.8 |  |
| H-H[Aib]EGTFTSDVSSYLEEQAAREFIAWLVRGRK([AEEA-AEEA-γGlu-X2])GGGGEASELSTAALGRLSAELHELATLPRTETGSGSP-NH2 [Compound 0655] | 11.4 | 3 |  |
| H-H[Aib]EGTFTSDVSSYLEEQAAREFIAWLVRGK([AEEA-AEEA-γGlu-C18 diacid])GGEASELSTAALGRLSAELHELATLPRTETGSGSP-NH2 [Compound 0132] | 34.9 | 3 |  |
| H-H[Aib]EGTFTSDVSSYLEEQAARK([AEEA-AEEA-γGlu-C16 diacid])FIAWLVK([AEEA-AEEA-γGlu-C16 diacid])GRGGGEASELSTAALGRLSAELHELATLPRTETGSGSP-NH2 [Compound 0077] | 25.7 | 2.1 |  |
| H-H[Aib]EGTFTSDVSSYLEEQAAREFIAWLVRGRK([AEEA-AEEA-γGlu-C20 diacid])GGGGSGGGEASELSTAALGRLSAELHELATLPRTETGSGSP-NH2 [Compound 0638] | 6.9 | 4.6 |  |
| H-H[Aib]EGTFTSDVSSYLEEQAAREFIAWLVRGRK([Ahx-Ahx-γGlu-C20 diacid])GGGGEASELSTAALGRLSAELHELATLPRTETGSGSP-NH2 [Compound 0659] | 11.5 | 4.7 |  |
| H-H[Aib]EGTFTSDVSSYLEGQAAK([AEEA-AEEA-γGlu-C20 diacid])EFIAWLVRGRGQEPGQAPEASELSTAALGRLSAELHELATLPRTETGSGSP-NH2 [Compound 0202] | 28.4 | 10.5 |  |
| H-H[Aib]EGTFTSDVSSYLEEQAARK([AEEA-AEEA-γGlu-C18 diacid])FIEWLVRGRK([AEEA-AEEA-γGlu-C18 diacid])GGEASELSTAALGRLSAELHELATLPRTETGSGSP-NH2 [Compound 0129] | 23.5 | 1.2 |  |
| H-HAEGTFTSDVSSYLEEK([AEEA-AEEA-γGlu-C20 diacid])AAREFIEWLVRGRGEASELSTAALGRLSAELHELATLPRTETGSGSP-NH2 [Compound 0474] | 21.8 | 2.9 |  |
| H-H[Aib]EGTFTSDVSSYLEEQAARK([AEEA-AEEA-γGlu-C18 diacid])FIEWLVRGK([AEEA-AEEA-γGlu-C18 diacid])GEGGEASELSTAALGRLSAELHELATLPRTETGSGSP-NH2 [Compound 0089] | 65.5 | 5.7 |  |
| H-H[Aib]EGTFTSDVSSYLEEQAAREFIAWLVRGRK(Butyryl(4-SO2NHCO(CH2)16Tz))ELSTAALGRLSAELHELATLPRTETGSGSP-NH2 [Compound 0102] | 9.8 | 14.7 |  |
| H-HAEGTFTSDK([AEEA-AEEA-γGlu-C16 diacid])SSYLEEK([AEEA-AEEA-γGlu-C16 diacid])AAREFIEWLVRGRGEASELSTAALGRLSAELHELATLPRTETGSGSP-NH2 [Compound 0475] | 66.8 | 70.4 |  |
| H-H[Aib]EGTFTSDVSSYLEGQAAK([AEEA-AEEA-γGlu-C18 diacid])EFIAWLVRGRGGQEPGQEPEASELSTAALGRLSAELHELATLPRTETGSGSP-NH2 [Compound 0019] | 26.5 | 13.7 |  |
| H-H[Aib]EGTFTSDVSSYLEGQAAREFIAWLVRGRGEGEGEK([AEEA-AEEA-γGlu-C18 diacid])EASELSTAALGRLSAELHELATLPRTETGSGSP-NH2 [Compound 0010] | 37 | 5.4 |  |
| HWEGTFTSDVSSYLEEK([AEEA-AEEA-γGlu-C18 diacid])AAREFIEWLVRGRGEASELSTAALGRLSAELHELATLPRTETGSGSP-NH2 [Compound 0271] | 15.2 | 4.6 |  |
| CC[C@H](C)[C@H](NC(=O)[C@H](Cc1ccccc1)NC(=O)[C@H](CCC(=O)O)NC(=O)[C@H](CCCCNC(=O)COCCOCCNC(=O)COCCOCCNC(=O)CC[C@H](NC(=O)CCCCCCCCCCCCCCC(=O)O)C(=O)O)NC(=O)[C@H](C)NC(=O)[C@H](C)NC(=O)[C@H](CCC(N)=O)NC(=O)CNC(=O)[C@H](CCC(=O)O)NC(=O)[C@H](CC(C)C)NC(=O)[C@H](Cc1ccc(O)cc1)NC(=O)[C@H](CO)NC(=O)[C@H](CO)NC(=O)[C@@H](NC(=O)[C@H](CC(=O)O)NC(=O)[C@H](CO)NC(=O)[C@@H](NC(=O)[C@H](Cc1ccccc1)NC(=O)[C@@H](NC(=O)CNC(=O)[C@H](CCC(=O)O)NC(=O)C(C)(C)NC(=O)[C@@H](N)Cc1c[nH]cn1)[C@@H](C)O)[C@@H](C)O)C(C)C)C(=O)N[C@@H](C)C(=O)N[C@@H](Cc1c[nH]c2ccccc12)C(=O)N[C@@H](CC(C)C)C(=O)N[C@H](C(=O)N[C@@H](CCCNC(=N)N)C(=O)NCC(=O)N[C@@H](CCCCNC(=O)COCCOCCNC(=O)COCCOCCNC(=O)CC[C@H](NC(=O)CCCCCCCCCCCCCCC(=O)O)C(=O)O)C(=O)NCC(=O)NCC(=O)NCC(=O)N[C@@H](CCC(=O)O)C(=O)N[C@@H](C)C(=O)N[C@@H](CO)C(=O)N[C@@H](CCC(=O)O)C(=O)N[C@@H](CC(C)C)C(=O)N[C@@H](CO)C(=O)N[C@H](C(=O)N[C@@H](C)C(=O)N[C@@H](C)C(=O)N[C@@H](CC(C)C)C(=O)NCC(=O)N[C@@H](CCCNC(=N)N)C(=O)N[C@@H](CC(C)C)C(=O)N[C@@H](CO)C(=O)N[C@@H](C)C(=O)N[C@@H](CCC(=O)O)C(=O)N[C@@H](CC(C)C)C(=O)N[C@@H](Cc1c[nH]cn1)C(=O)N[C@@H](CCC(=O)O)C(=O)N[C@@H](CC(C)C)C(=O)N[C@@H](C)C(=O)N[C@H](C(=O)N[C@@H](CC(C)C)C(=O)N1CCC[C@H]1C(=O)N[C@@H](CCCNC(=N)N)C(=O)N[C@H](C(=O)N[C@@H](CCC(=O)O)C(=O)N[C@H](C(=O)NCC(=O)N[C@@H](CO)C(=O)NCC(=O)N[C@@H](CO)C(=O)N1CCC[C@H]1C(N)=O)[C@@H](C)O)[C@@H](C)O)[C@@H](C)O)[C@@H](C)O)C(C)C [Compound 0075] | 43.9 | 84.5 |  |
| H-H[Aib]EGTFTSDVSSYLEGQAAREFIAWLVRGRK([AEEA-AEEA-γGlu-C18 diacid])GQEPGQAPEASELSTAALGRLSAELHELATLPRTETGSGSP-NH2 [Compound 0083] | 46.2 | 5.4 |  |
| H-H[Aib]EGTFTSDVSSYLEEQAARK([AEEA-AEEA-γGlu-C16 diacid])FIAWLVRGRGGGGGEASELSTAALGRLSAELHK([AEEA-AEEA-γGlu-C16 diacid])LATLPRTETGSGSP-NH2 [Compound 0509] | 29.9 | 7.1 |  |
| H-H[Aib]EGTFTSDVSK([γGlu-γGlu-γGlu-γGlu-C16 diacid])YLEEQAARK([γGlu-γGlu-γGlu-γGlu-C16 diacid])FIAWLVRGRGEASELSTAALGRLSAELHELATLPRTETGSGSP-NH2 [Compound 0634] | 59.4 | 14.7 |  |
| H-H[Aib]EGTFTSK([AEEA-AEEA-γGlu-Trx-C20 diacid])VSSYLEEQAAREFIEWLVRGRGEASELSTAALGRLSAELHELATLPRTETGSGSP-NH2 [Compound 0417] | 21 | 97.8 |  |
| H-H[Aib]EGTFTSDVSSYLEGQAAKEIFAWLVRGRK([εLys-AEEA-AEEA-γGlu-C18 diacid])GGEASELSTAALGRLSAELHELATLPRTETGSGSP-NH2 [Comparator compound 0164, reference compound] |  |  | EC50 [1, 3]: 29.6 pM; EC50 [2, 3]: 852 pM; Ability to agonise the GLP-1 receptor, in words ([2]; Tables 4a-4c): impaired their ability to agonise (activate) the GLP-1 receptor |
| H-H[Aib]EGTFTSDVSSYLEEQAAREFIAWLVRGK([AEEA-AEEA-γGlu-C16 diacid])GGGGGEASELSTAALGRLSAELHK([AEEA-AEEA-γGlu-C16 diacid])LATLPRTETGSGSP-NH2 [Compound 0280] | 18 | 34.3 |  |
| H-H[Aib]EGTFTSDVSSYLEEQAAREFIEWLVRGK(Butyryl(4-SO2NHCO(CH2)16Tz))ASELSTAALGRLSAELHELATLPRTETGSGSP-NH2 [Compound 0147] | 33.7 | 36.8 |  |
| H-H[Aib]EGTFTSDVSSYLEGQAAK([AEEA-AEEA-γGlu-C20 diacid])EFIAWLVRGRGQAPGQEPEASELSTAALGRLSAELHELATLPRTETGSGSP-NH2 [Compound 0157] | 18.4 | 28.7 |  |
| H-H[Aib]EGTFTSDVSSYLEEQAARK([AEEA-AEEA-γGlu-C18 diacid])FIAWLVRGRGGGGGEASELSTAALGRLSAELHELATLPRTETGSGSP-NH2 [Compound 0639] | 4.6 | 1.5 |  |
